These are literature values, as cited in patent US20200397744A1, “COMPOSITIONS COMPRISING CO-CRYSTALS OF STILBENOIDS AND CANNABINOIDS” (priority 2018, published 2020).

Structures are written as SMILES.

The conditions of data set [1]: in vivo.
The test system of another data set is cancer cell lines. The settings on record: cancer cell lines in vitro.

As to `CN(C)C(=N)N=C(N)N` [metformin], the “decrease of plasma glucose levels” value with hyperglycemic rats is 48%.
As for `COc1cc(/C=C/c2ccc(O)cc2)cc(OC)c1` [pterostilbene, trans-3,5-dimethoxy-4′-hydroxystilbene], in data set [1], the bioavailability entry is reported as “poor bioavailability”. In addition, the cytotoxic activity entry in the data set with cancer cell lines was “cytotoxic activity”.
